The nature of data set [1]: Recovery of GT and bmGT from human whole blood (influence of blood cells). Type of data set: in vitro ADME. The settings on record: whole blood, human blood, blood centrifuged before extraction to eliminate cellular fraction; for recovery at 30 min, 5 µg/mL: 5 μg added to 1 ml; for recovery at 30 min, 20 µg/mL: 20 μg added to 1 ml. How it is done:
(§1) […] Later, the blood was centrifuged at 2000 revolutions per minute (rpm) during 15 minutes, the serum was recovered and GT and bmGT were extracted and analysed as described above.
(§2) The samples were separated using a horizontal developing chamber (Camag) by facing the plates downwards. n-heptane (C7), MeOH, tetrahydrofuran (THF) and acetonitrile (ACN) (HPLC grade, Scharlau, Barcelona, Spain) were used as solvents. The separation and quantification of GT and bmGT was performed with a mixture of THF:C7:ACN (40:58:2) (v:v:v) during 3 min.
(§3) Detection and quantification by UV spectroscopy, a TLC3 scanner was used (Camag) in UV mode whereby a UV scanning densitometry was carried out to determine GT and bmGT (wavelength (λ)=280 and 367 nm). A linear scan with a beam of 4 mm×0.2 mm was used in both cases. The area under the peaks was quantified and saved using Camag's software.
(§4) In parallel, the influence of the presence of blood cells on the recovery of GT and bmGT was analysed. Unlike the serum and plasma, less than 10% of GT was recovered from the whole blood, even when large quantities of GT (20 ug) were added (Table 1). […] The precision of this determination was as high as in the serum or plasma with RSD values of between 9-16%. Aliquots of blood and plasma from the same unit of blood were used simultaneously to perform these determinations, therefore, the only, but crucial, difference between both fluids is the presence of red and white cells in the blood.

The test system of the next data set is blood cells. The data set is described as above. Type of data set: in vitro ADME. The settings on record: for lost in the blood cells: added to total blood, plasma levels analysed after 10 minutes. The method, then:
as §1, §2, §3, §4

For data set [2] the following is noted: disulfide bond blocked by methylation; cited from earlier work.

Each structure is given as a SMILES string.

In data set [1], `CN1C(=O)[C@]23CC4=CC=C[C@H](O)[C@H]4N2C(=O)[C@@]1(CO)SS3` [GT, Gliotoxin] came in with a recovery at 30 min, 5 µg/mL of 8.44% and a recovery at 30 min, 20 µg/mL of 6.56%. Besides, the “lost in the blood cells” value with blood cells stood at 90%. Moreover, the “recovered from the whole blood” value in the data set on blood cells (whole blood, even when large quantities (20 ug) were added) is “less than 10%”.

On to `CS[C@]1(CO)C(=O)N2C3C(=CC=C[C@@H]3O)C[C@@]2(SC)C(=O)N1C` (some centres unmarked) [bmGT], for which, in data set [2], the biological activity entry was “biologically inactive”. Also, in data set [1], the recovery at 30 min, 5 µg/mL was determined as 73.2% and the recovery at 30 min, 20 µg/mL came out at 87.2%. Moreover, in the data set with blood cells, the “lost in the blood cells” value was 10-15%.

The record behind these values is patent US20140155341A1, “USE OF SS'-DIMETHYL-GLIOTOXIN AS […] OF P[…] BY GLIOTOXIN-PRODUCING FUNGI OR THEIR DERIVATIVES” (priority 2011, published 2014).
